Results: PMC7497253, “Structure‐Based Macrocyclization of Substrate Analogue NS2B‐NS3 Protease Inhibitors of Zika, West Nile and Dengue viruses” (Chemmedchem, 2020)

Key:
Assay type in all cases: biochemical
[1] = molecular target: T1, bZiPro (unlinked binary Zika virus NS2B-NS3 protease) (Zika virus, UniProt A0A024B7W1); test: Enzyme kinetics with bZiPro, fluorogenic substrate Phac-Leu-Lys-Lys-Arg-AMC; details: for Ki: K i bZiPro, mean±SD of at least three independent measurements, substrate 10 μM in assay, room temperature, pH 8.5
T1 construct: The viral protease consists of the N‐terminal third of the nonstructural protein NS3; the NS2B construct ends at Glu96; His6 (cleaved yes); made in house
T1 sequence (A0A024B7W1 1503-1680 limits assumed): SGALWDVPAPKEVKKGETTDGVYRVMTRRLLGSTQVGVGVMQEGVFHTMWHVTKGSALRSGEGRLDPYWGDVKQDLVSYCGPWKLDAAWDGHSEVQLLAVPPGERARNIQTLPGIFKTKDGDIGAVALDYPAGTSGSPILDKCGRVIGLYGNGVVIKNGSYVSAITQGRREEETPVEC
T1 sequence (A0A024B7W1 1425-1464 limits assumed): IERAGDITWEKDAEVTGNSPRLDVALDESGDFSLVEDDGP
Protocol: (§1) Enzyme kinetics. Measurements with bZiPro15 and the covalent WNV NS2B‐NS3 construct^10 were performed at room temperature in black 96 well plates using a Fluoroskan Ascent® plate reader (Thermo Fisher Scientific, Vantaa, Finland) with λ ex at 355 nm and λ em at 460 nm. Each well contained 125 μL inhibitor dissolved in buffer (for bZiPro: 20 mM Tris×HCl pH 8.5, 2 mM DTT, 10 w/v glycerol and 0.01 w/v Triton X‐100;18 for WNV protease: 100 mM Tris×HCl pH 8.5, containing 32 w/v glycerol and 0.01 w/v Triton X‐10012) and 50 μL substrate Phac‐Leu‐Lys‐Lys‐Arg‐AMC12 (40 μM for bZiPro (10 μM in assay, K M=1.4 μM) and 400 μM for the WNV protease (100 μM in assay, K M=53 μM)). The measurements were started by addition of 25 μL enzyme solution (16 nM for bZiPro (2.0 nM in assay), and 64 nM for the WNV protease (8.0 nM in assay)). Data points were collected each 15 s over a period of 10 min using eight different inhibitor concentrations. […] The K i values and their standard deviation were obtained from at least three independent measurements.(1) vi=Vmax×[S]/KM1+[I]/Ki+[S]
The constants K M and V max were obtained from independent measurements with six different substrate concentrations in absence of inhibitor. For inhibitor 10 with bZiPro, additional measurements at three substrate concentrations (10, 5, and 2.5 μM in assay) were performed to obtain the Dixon plot shown in Figure 4.

[2] = molecular target: T2, WNV NS2B-NS3 protease (WNV-Pro) (West Nile virus, UniProt P06935); test: Enzyme kinetics with the covalent WNV NS2B-NS3 construct, substrate Phac-Leu-Lys-Lys-Arg-AMC
T2 construct: NS3 has to form a complex with its cofactor NS2B to achieve proteolytic activity; The viral protease consists of the N‐terminal third of the nonstructural protein NS3
T2 sequence (P06935 1424-1463): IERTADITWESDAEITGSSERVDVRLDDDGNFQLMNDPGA
T2 sequence (P06935 1502-1679): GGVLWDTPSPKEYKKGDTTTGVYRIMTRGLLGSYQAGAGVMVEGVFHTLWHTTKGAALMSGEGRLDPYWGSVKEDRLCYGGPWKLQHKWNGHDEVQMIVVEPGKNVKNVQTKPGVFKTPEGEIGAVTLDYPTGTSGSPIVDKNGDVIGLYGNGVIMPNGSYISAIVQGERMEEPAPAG
Protocol: as §1

[3] = molecular target: T3, bD4Pro (unlinked binary dengue-4 virus NS2B-NS3 protease) (Dengue virus type 4, UniProt Q2YHF2); test: Enzyme kinetics with bD4Pro, substrate Benzoyl-Nle-Lys-Arg-Arg-AMC
T3 construct: The viral protease consists of the N‐terminal third of the nonstructural protein NS3; NS3 has to form a complex with its cofactor NS2B to achieve proteolytic activity; His6 (cleaved yes); made in house
T3 sequence (Q2YHF2 1475-1652 limits assumed): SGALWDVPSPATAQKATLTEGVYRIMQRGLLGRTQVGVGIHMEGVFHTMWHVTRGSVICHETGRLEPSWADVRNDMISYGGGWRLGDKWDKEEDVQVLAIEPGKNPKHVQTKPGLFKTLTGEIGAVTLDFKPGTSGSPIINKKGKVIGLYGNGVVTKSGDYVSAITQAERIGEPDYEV
T3 sequence (Q2YHF2 1397-1436 limits assumed): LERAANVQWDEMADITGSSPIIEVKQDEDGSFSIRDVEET
Protocol: Measurements with the dengue 4 virus protease construct (bD4Pro; expressed and purified by a similar methodology as described for bZiPro15 with slight modification of using Tobacco Etch Virus (TEV) protease instead of thrombin for His6‐tag cleavage) were performed in a Cytation 3 Mulitmode plate reader with λ ex at 380 nm and λ em at 460 nm. Assays were carried out as triplicate at 37 °C. Before measurement, the protease (final assay concentration 3 nM) was preincubated with varying concentrations of inhibitors in assay buffer (20 mM Tris pH 8.5, 10 % glycerol, 0.01 % Triton X‐100) for 1 h at room temperature in Corning black clear bottom 96‐well plates. The reaction was started by addition of the substrate Benzoyl‐Nle‐Lys‐Arg‐Arg‐AMC (final assay concentration 50 μM, K M=48.4 μM). Fluorescent readings were recorded at 1‐minute intervals over 10 minutes. The steady‐state rates v i in presence of inhibitor were calculated from the slopes of the progress curves using Graph Pad Prism. The v i values were fitted to Equation (2) as function of the inhibitor concentration [I] providing the IC50 values, where v 0 is the rate in absence of inhibitor and s a slope factor. The obtained IC50 values were finally converted into K i values by the Cheng‐Prusoff Equation (2).(2) vi=v0/1+I/IC50^s (3) Ki=IC50/1+S/KM

trypsin = molecular target: T4, trypsin (Bos taurus, UniProt P00760); test: Enzyme kinetic assay with trypsin (selectivity); details: at concentrations of 75 μM
T4 construct: gene PRSS1
T4 sequence (P00760 24-246): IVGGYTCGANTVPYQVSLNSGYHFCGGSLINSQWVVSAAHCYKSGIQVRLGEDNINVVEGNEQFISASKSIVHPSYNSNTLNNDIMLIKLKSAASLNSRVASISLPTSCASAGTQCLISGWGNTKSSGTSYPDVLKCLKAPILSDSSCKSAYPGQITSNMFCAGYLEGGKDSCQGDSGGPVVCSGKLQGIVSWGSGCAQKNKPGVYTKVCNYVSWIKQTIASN
Source text: (§2) Some of the latter group, like the peptidic arginal8 or boroarginine derivatives,10 form a reversible covalent bond with their target. […] With respect to virus replication, mutations in allosteric binding pockets are better tolerated than changes in the active site, which often lead to a more severe influence on the fitness of the virus.31, 32 This advantage justifies further efforts for the improvement of active site inhibitors. One strategy to reduce the conformational freedom of peptide derivatives and predisposing them to a favorable orientation for binding is their macrocyclization, leading to improved potency, selectivity and stability.33 By this approach, we have prepared numerous noncovalent inhibitors with excellent selectivity for the tested flavivirins, when compared with trypsin‐like serine proteases or basic proprotein convertases. […] The deep S1 pocket of trypsin34 and furin35 cannot tolerate a branching close to the basic P1 guanidine anchor, which is well accepted by the flavivirins due to their flat and open S1 site. In contrast to some of our previously described linear C‐terminal elongated derivatives,18, 36 the cyclic derivatives are fully stable when incubated with bZiPro, as analyzed by mass spectrometry (Figure S3). […]

furin = furin (Homo sapiens, UniProt P09958); test: Enzyme kinetic assay with furin (selectivity); details: at concentrations of 75 μM
Chain of furin (P09958 108-794): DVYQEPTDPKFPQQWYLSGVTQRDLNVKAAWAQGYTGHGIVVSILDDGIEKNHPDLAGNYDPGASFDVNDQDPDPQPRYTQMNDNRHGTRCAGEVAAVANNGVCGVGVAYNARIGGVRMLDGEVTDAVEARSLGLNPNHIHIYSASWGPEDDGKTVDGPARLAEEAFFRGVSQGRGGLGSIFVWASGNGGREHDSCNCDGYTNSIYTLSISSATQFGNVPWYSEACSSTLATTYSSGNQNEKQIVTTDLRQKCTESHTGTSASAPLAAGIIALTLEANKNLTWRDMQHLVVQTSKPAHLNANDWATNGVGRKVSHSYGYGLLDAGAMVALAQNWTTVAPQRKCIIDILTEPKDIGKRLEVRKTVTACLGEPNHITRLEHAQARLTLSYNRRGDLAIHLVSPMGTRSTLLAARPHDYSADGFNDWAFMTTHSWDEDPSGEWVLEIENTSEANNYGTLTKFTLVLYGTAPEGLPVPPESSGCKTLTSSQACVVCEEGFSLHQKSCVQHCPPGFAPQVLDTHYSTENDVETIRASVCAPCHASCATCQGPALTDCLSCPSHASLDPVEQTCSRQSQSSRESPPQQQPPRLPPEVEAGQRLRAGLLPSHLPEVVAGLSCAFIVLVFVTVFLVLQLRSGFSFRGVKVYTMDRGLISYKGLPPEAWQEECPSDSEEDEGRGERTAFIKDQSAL
Source text: as §2

Row | SMILES | Ki [1] [nM] | Ki [2] [nM] | Ki [3] [nM] | inhibition of trypsin (trypsin) | inhibition of furin (furin) | binding mode from Dixon plot of bZiPro inhibition ([1]; substrate 10, 5 and 2.5 μM, bZiPro 1.96 nM in assay) | times less potent inhibitor of bZiPro than analogue 10 ([1]; compared with cyclic analogue 10)
1 | N=C(N)N[C@@H]1CCCCNC(=O)[C@H](CCCCN)NC(=O)[C@H](CCCCN)NC(=O)Cc2cccc(c2)NC(=O)CNC1=O [Inhibitor 11] | 1420 ± 270 | 47600 ± 2500 | 60600 ± 5300 | could not detect any inhibition | could not detect any inhibition | – | –
2 | N=C(N)N[C@@H]1CCCCNC(=O)[C@H](CCCCN)NC(=O)[C@H](CCCCN)NC(=O)Cc2cccc(c2)CNC(=O)CNC1=O [Inhibitor 10, 1‐((8R,15S,18S)‐15,18‐bis(4‐aminobutyl)‐4,7,14,17,20‐pentaoxo‐3,6,13,16,19‐pentaaza‐1(1,3)‐benzenacyclohenicosaphane‐8‐yl)guanidine] | 1.57 ± 0.32 | 138 ± 31 | 142 ± 10 | could not detect any inhibition | could not detect any inhibition | competitive reversible | –
3 | N=C(N)N[C@H](CCCCNC(=O)[C@H](CCCCN)NC(=O)[C@H](CCCCN)NC(=O)Cc1cccc(CNC(=O)CN)c1)C(=O)O [Inhibitor 29] | 2040 ± 600 | 51600 ± 700 | 75000 ± 3400 | – | – | – | more than 1000 times
